In PubChem BioAssay AID1959 (Broad Institute, 2009):
The source made the active and inactive calls.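 How the source made its calls: active means growth-inhibition EC50 no more than tenfold above the top tested dose; inconclusive means flat fit between 30% and 70% inhibition, or unreliable fit; inactive means EC50 more than tenfold above the top tested dose.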

Tested on: E. coli NEB5alpha growth, BacTiter-Glo luminescence, 4 h
Test: Escherichia coli growth inhibition, dose response, counter-screen for MEX-5/POS-1 RNA-binding inhibitor project, luminescence, NEB5alpha (AID 1959);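 further: pUC19-transformed ampicillin-resistant cells grown in LB with ampicillin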

Structure (SMILES)	EC50
O=C1c2ccccc2C(=O)c2[nH]c(=O)[nH]c21	> 11 µM (inactive)
CCN1CCc2c(sc(NC(=O)c3ccc4ccccc4c3)c2C(N)=O)C1	> 11 µM (inactive)
Cc1ccc(C2c3sc(=O)[nH]c3SC3C(=O)NC(=O)C32)cc1 (configuration not stated)	> 11 µM (inactive)
Cc1ccc(N2C(=O)c3cccc4c(N5CCN(C)CC5)ccc(c34)C2=O)c2cccnc12	> 11 µM (inactive)
O=c1[nH]c2ccc([N+](=O)[O-])cc2nc1/C=C(\O)c1ccccc1	> 11 µM (inactive)
CCOc1cc(/C=C/c2cccc[n+]2C)ccc1OCC(=O)Nc1ccc(C)cc1	> 11 µM (inactive)
COc1cc(/C=C2\C(=O)NN(c3ccccc3)C2=O)cc([N+](=O)[O-])c1O	> 11 µM (inactive)
Nc1ccc(S(=O)(=O)NNC(=O)C(=O)NNc2ccccn2)cc1	> 11 µM (inactive)
CN1Cc2c(c(C#N)c(N)n(C)c2=S)CC1(C)C	> 11 µM (inactive)
CC1(C)CC(=O)C2=C(C1)OC(/N=C/N1CCCC1)=C(C#N)C2c1ccccc1 (configuration not stated)	> 11 µM (inactive)
O=C(Nc1ccnn1C1CCN(CC2CC=CCC2)CC1)c1ccccc1 (configuration not stated)	> 11 µM (inactive)
C/C(=N\Nc1ncnc2sc(C)c(C)c12)c1ccccn1	> 11 µM (inactive)
CN1C(=O)C(=Cc2ccc(N3CCCCC3)o2)C(=O)N(C)C1=S	> 11 µM (inactive)
COc1cccc(/C=N/NC(=O)c2ccc(=O)[nH]n2)c1O	> 11 µM (inactive)
Cc1cc2c3c(c1)C1(C(=O)N3C(C)(C)CC2C)C(C#N)=C(N)OC2=C1C(=O)CC(C)(C)C2 (configuration not stated)	> 11 µM (inactive)
Cc1cccn2c(=O)c3cc(C#N)c(=NC(=O)c4cccs4)n(CCCOC(C)C)c3nc12	> 11 µM (inactive)
O=C(NCCN1CCOCC1)c1cccn2c(=O)c3c4c(sc3nc12)CCCC4	> 11 µM (inactive)
CC1(OC(=O)c2cccs2)C(=O)C=C2C=C(C3CC3)OC=C2C1=O (configuration not stated)	> 11 µM (inactive)
N#CC(C#N)=Cc1ccc(NC(=O)c2ccc(Br)cc2)cc1	> 11 µM (inactive)
Cc1ccc(N2C(=O)NC(=O)/C(=C\c3cc(C)n(-c4ccc(C(=O)O)cc4)c3C)C2=O)cc1	> 11 µM (inactive)
Cc1ccc(-c2cc(-c3ccco3)c(C#N)c(=O)[nH]2)cc1	> 11 µM (inactive)
Cc1ccccc1NC(=O)CN1C(=O)S/C(=C\c2ccc(-c3cc(C(=O)O)ccc3C)o2)C1=O	> 11 µM (inactive)
O=C(O)CCNc1ccc(NCCC(=O)O)c2c1C(=O)c1ccccc1C2=O	> 11 µM (inactive)
COc1ccc(C2C(C#N)=C(N)OC3=C2C(=O)CC(C)(C)C3)cc1 (configuration not stated)	> 11 µM (inactive)

Structure (SMILES)	EC50
Cc1ccc(S(=O)(=O)N2CCOCC2)cc1NC(=O)CN(C)C1CCS(=O)(=O)C1 (configuration not stated)	> 11 µM (inactive)
N#CC1=C(N)OC2=C(C(=O)CCC2)C1c1ccccc1 (configuration not stated)	> 11 µM (inactive)
CCOc1ccc2nc3cc(NCc4ccc(OC)cc4)ccc3c(N)c2c1	> 11 µM (inactive)
O=[N+]([O-])c1cccc(/C=C/c2nc(C=Nc3ccccc3)c(O)o2)c1	> 11 µM (inactive)
COc1ccc(CCn2c(O)c(/C=N/NC(=O)c3ccncc3)c(=O)[nH]c2=O)cc1OC	> 11 µM (inactive)
CCc1ccc(C(=O)NNC(=O)c2ccc(=O)n(C)n2)cc1	> 11 µM (inactive)
CC1=NN(c2cccc(C(=O)O)c2)C(=O)/C1=C\C=C\c1ccco1	> 11 µM (inactive)
O=C(O[C@@H]1Cc2c(O)cc(O)cc2O[C@@H]1c1cc(O)c(O)c(O)c1)c1cc(O)c(O)c(O)c1	> 11 µM (inactive)
C=Cc1c(C)c2cc3[nH]c(cc4nc(cc5nc(cc1[nH]2)C(C)=C5CCC(=O)O)C(CCC(=O)O)=C4C)c(C)c3C=C	> 11 µM (inactive)
COc1ccc(P2(=O)Nc3ccccc3N2)cc1	> 11 µM (inactive)
CC1=C(C#N)C(=O)NC(=O)/C1=C/c1ccc(-c2ccc(S(N)(=O)=O)cc2)o1	> 11 µM (inactive)
O=Cc1c(-c2ccccc2)nc2ccccn12	> 11 µM (inactive)
COc1cc(/C=N\Nc2ccc([N+](=O)[O-])cc2)ccc1OCC(=O)Nc1ccc(C)c(C)c1	> 11 µM (inactive)
CCOC(=O)N1CCN(/C=C(\C#N)c2nc3ccccc3s2)CC1	> 11 µM (inactive)
CCC(=O)OC1(C)C(=O)C=C2C=C(CCCC(=O)OC)OC=C2C1=O (configuration not stated)	> 11 µM (inactive)
CC1(C)c2[nH]c3ccccc3c2C[C@@H]2C(=O)N(c3ccc(F)cc3F)C(=O)N21	> 11 µM (inactive)
COC1(OC)N=C(N)C2(C#N)C(c3ccc4c(c3)OCO4)C12C#N (configuration not stated)	> 11 µM (inactive)
CCn1c(CNC(=O)c2ccc(Cl)cc2)nnc1SCC(=O)N1CCOCC1	> 11 µM (inactive)
Cc1ccc(/C=C2\C(=O)NC(=O)N(CC3CCCO3)C2=O)s1 (configuration not stated)	> 11 µM (inactive)
CCN(CC)c1ccc2cc(NC(=O)CCC(=O)O)c(=O)oc2c1	> 11 µM (inactive)
O=C(NCCF)C1Nc2ccc(OC(F)(F)F)cc2C2C=CCC12 (configuration not stated)	> 11 µM (inactive)
Oc1ccc(-c2cn3ccccc3n2)cc1O	> 11 µM (inactive)
COc1ccc(-c2nc(CS(=O)CC(=O)NCc3ccccn3)c(C)o2)cc1 (configuration not stated)	> 11 µM (inactive)
